Test results: US6458764B1, “GRF analogs with increased biological potency” (Theratechnologies Inc., priority 1995, dated 2002)
Where no end group is shown, it is not given here. The star is where a group is joined. Hexanoyl = CCCCCC(=O)*

How the values were obtained:
serum IGF-I [1] = test: Comparative effects of GRF analogs on IGF-I levels in pigs (Example II, D-IGF-I, FIG. 1); type: in vivo, pigs (Landrace x Yorkshire); settings: 20 μg/kg 2×/day S.C., days 1 to 5, n=8 pigs per group
Experimental: This was a 5-day treatment, twice a day S.C. administration of one single dose of each test article vs saline. This experiment was conducted to compare the efficacy of (Aminohexanoyl)0 hGRF (1-29) NH2, (Hexylformiate)0 hGRF (1-29) NH2, (Hexenoyl trans-2)0 hGRF (1-29) NH2, (Hexenoyl trans-3)0 hGRF (1-29) NH2 and (Muconoyl)0 hGRF (1-29) NH2 to that of(Hexanoyl)0 hGRF (1-29) NH2.
ADMINISTRATION: Two daily subcutaneous injections.
TEST SYSTEM: Landrace x Yorkshire pigs.
ANIMAL DESCRIPTION: Fifty six (56) growing barrows pigs weighing 35 kg at the time of purchase.
DESIGN: Fifty six (56) pigs were randomly distributed into 7 experimental groups (n=8 pigs per group). Each group received two daily S.C. administration of the following treatments (volume: 3 ml, S.C. injection).
Treatments were administered from day 1 to 5. Immediately before the injections, one blood sample were collected from each animal, and additional blood samples were collected on day 6.
Blood samples were allowed to clot, serum was harvested by centrifugation and submitted to IGF-I assays.
Results are shown in FIG. 1 as D-IGF-I, which is defined as the increase in IGF-I levels from day 1 (pretreatment levels) to day 6 (after 5 days of GRFs administrations).

serum IGF-I [2] = test: Repeated S.C. administrations of GRF analogs, serum IGF-I levels in pigs (Example I, Experiments 1-3; radioimmunoassay); type: in vivo, pigs (Landrace x Yorkshire); settings: for serum IGF-I, Day 1 (pretreatment): pretreatment baseline; for increase in IGF-I levels: P<0.05
Experimental: The objective of these experiments was to assess the potential of the GRF analogs as anabolic agents.
Therefore, in order to investigate the anabolic potency of the fatty acid-GRF analogs, their ability to increase IGF-I levels following repeated S.C. administrations in pig was evaluated.
26 Landrace x Yorkshire castrated male pigs (40-45 kg BW) were randomly distributed into 4 experimental groups:
Each animal was injected BID (twice a day) subcutaneously for 4 consecutive days. One blood sample was collected each morning prior to the first injection of the day, and the day after the last injection, for IGF-I measurement.
40 Landrace x Yorkshire castrated male pigs (40-45 kg BW) were randomly distributed into 5 experimental groups:
(§1) Each animal was injected BID (twice a day) subcutaneously for 5 consecutive days. One blood sample was collected each morning prior to the first injection of the day, and the day after the last injection, for IGF-I measurement.
48 Landrace x Yorkshire castrated male pigs (40-45 kg BW) were randomly distributed into 6 experimental groups:
as §1, with “The selected doses were 30 μg/kg for hGRF(1-44)NH2 analogs and 20 μg/kg for hGRF(1-29)NH2 analogs, which give identical doses on a molar basis. Each” for “Each”, “measurements.” for “measurement.”
IGF-I levels were measured in pig serum by double antibody radioimmunoassay after formic acid-acetone extraction, as previously described (Abribat T. et al., 1993, J. Endocrinol., 39:583-589). The extraction prior to radioimmunoassay is a necessary step to remove endogenous IGF-binding proteins.
In both experiments, the IGF-I data were analyzed by a two way repeated measure analysis of variance, with day and treatment (GRF analog) as sources of variation. Multiple comparison procedures were there run (Student-Newman Keuls method). A P<0.05 was considered as statistically significant.

[3] = Experiment 1, 20 μg/kg BID SC × 4 days, mean of 6 to 7
[4] = Experiment 3, 20 μg/kg BID SC × 5 days, mean of 8
[5] = Experiment 3, 30 μg/kg BID SC × 5 days, mean of 8

(Hexenoyl trans-2)0 hGRF (1-29) NH2 ({trans‑2‑hexenoyl}-YADAIFTNSYRKVLGQLSARKLLQDIMSR-NH2; UniProt P01286 32-60, looked up, fragment) [hexenoyl trans2-hGRF(1-29)NH2]
D-IGF-I: increase in IGF-I levels from day 1 (pretreatment) to day 6 (serum IGF-I [1]): significantly increased IGF-I levels

(Muconoyl)0 hGRF (1-29) NH2 (muconoyl-YADAIFTNSYRKVLGQLSARKLLQDIMSR-NH2; UniProt P01286 32-60, looked up, fragment) [muconoyl-hGRF(1-29)NH2]
D-IGF-I: increase in IGF-I levels from day 1 (pretreatment) to day 6 (serum IGF-I [1]): did not

[octanoyl^0] hGRF(1-29)NH2 (YADAIFTNSYRKVLGQLSARKLLQDIMSR; HELM PEPTIDE1{[CCCCCCCC(=O)[*:2]].Y.A.D.A.I.F.T.N.S.Y.R.K.V.L.G.Q.L.S.A.R.K.L.L.Q.D.I.M.S.R.[am]}$$$$V2.0; SMILES CCCCCCCC(=O)N[C@@H](Cc1ccc(O)cc1)C(=O)N[C@@H](C)C(=O)N[C@@H](CC(=O)O)C(=O)N[C@@H](C)C(=O)N[C@H](C(=O)N[C@@H](Cc1ccccc1)C(=O)N[C@H](C(=O)N[C@@H](CC(N)=O)C(=O)N[C@@H](CO)C(=O)N[C@@H](Cc1ccc(O)cc1)C(=O)N[C@@H](CCCNC(=N)N)C(=O)N[C@@H](CCCCN)C(=O)N[C@H](C(=O)N[C@@H](CC(C)C)C(=O)NCC(=O)N[C@@H](CCC(N)=O)C(=O)N[C@@H](CC(C)C)C(=O)N[C@@H](CO)C(=O)N[C@@H](C)C(=O)N[C@@H](CCCNC(=N)N)C(=O)N[C@@H](CCCCN)C(=O)N[C@@H](CC(C)C)C(=O)N[C@@H](CC(C)C)C(=O)N[C@@H](CCC(N)=O)C(=O)N[C@@H](CC(=O)O)C(=O)N[C@H](C(=O)N[C@@H](CCSC)C(=O)N[C@@H](CO)C(=O)N[C@@H](CCCNC(=N)N)C(N)=O)[C@@H](C)CC)C(C)C)[C@@H](C)O)[C@@H](C)CC; UniProt P01286 32-60, looked up, fragment)
serum IGF-I, Day 2 (serum IGF-I [2]; [3]): 287 ng/mL | serum IGF-I, Day 3 (serum IGF-I [2]; [3]): 301 ng/mL | serum IGF-I, Day 4 (serum IGF-I [2]; [3]): 301 ng/mL | serum IGF-I, Day 5 (serum IGF-I [2]; [3]): 318 ng/mL | serum IGF-I, Day 1 (pretreatment) (serum IGF-I [2]; [3]): 316 ng/mL

[hexanoyl^0, 30]hGRF(1-29)NH2 (Hexanoyl-YADAIFTNSYRKVLGQLSARKLLQDIMSR-NH2; also: hexanoyl at position 30; UniProt P01286 32-60, looked up, fragment) [[hexanoyl^0,30] hGRF(1-29)NH2]
serum IGF-I, Day 2 (serum IGF-I [2]; [4]): 212 ng/mL | serum IGF-I, Day 3 (serum IGF-I [2]; [4]): 253 ng/mL | serum IGF-I, Day 4 (serum IGF-I [2]; [4]): 271 ng/mL | serum IGF-I, Day 5 (serum IGF-I [2]; [4]): 277 ng/mL | serum IGF-I, Day 6 (serum IGF-I [2]; [4]): 294 ng/mL | serum IGF-I, Day 1 (pretreatment) (serum IGF-I [2]; [4]): 205 ng/mL | increase in IGF-I levels (serum IGF-I [2]; Experiment 3, 20 μg/kg BID SC, day 4): 32% | increase in IGF-I levels (serum IGF-I [2]; Experiment 3, 20 μg/kg BID SC, day 5): 35% | increase in IGF-I levels (serum IGF-I [2]; Experiment 3, 20 μg/kg BID SC, day 6): 43%

(Hexylformiate)0 hGRF (1-29) NH2 (hexylformiate-YADAIFTNSYRKVLGQLSARKLLQDIMSR-NH2; UniProt P01286 32-60, looked up, fragment) [hexylformiate-hGRF(1-29)NH2]
D-IGF-I: increase in IGF-I levels from day 1 (pretreatment) to day 6 (serum IGF-I [1]): significantly increased IGF-I levels

[butyryl^0] hGRF(1-29)NH2 (YADAIFTNSYRKVLGQLSARKLLQDIMSR; HELM PEPTIDE1{[CCCC(=O)[*:2]].Y.A.D.A.I.F.T.N.S.Y.R.K.V.L.G.Q.L.S.A.R.K.L.L.Q.D.I.M.S.R.[am]}$$$$V2.0; SMILES CCCC(=O)N[C@@H](Cc1ccc(O)cc1)C(=O)N[C@@H](C)C(=O)N[C@@H](CC(=O)O)C(=O)N[C@@H](C)C(=O)N[C@H](C(=O)N[C@@H](Cc1ccccc1)C(=O)N[C@H](C(=O)N[C@@H](CC(N)=O)C(=O)N[C@@H](CO)C(=O)N[C@@H](Cc1ccc(O)cc1)C(=O)N[C@@H](CCCNC(=N)N)C(=O)N[C@@H](CCCCN)C(=O)N[C@H](C(=O)N[C@@H](CC(C)C)C(=O)NCC(=O)N[C@@H](CCC(N)=O)C(=O)N[C@@H](CC(C)C)C(=O)N[C@@H](CO)C(=O)N[C@@H](C)C(=O)N[C@@H](CCCNC(=N)N)C(=O)N[C@@H](CCCCN)C(=O)N[C@@H](CC(C)C)C(=O)N[C@@H](CC(C)C)C(=O)N[C@@H](CCC(N)=O)C(=O)N[C@@H](CC(=O)O)C(=O)N[C@H](C(=O)N[C@@H](CCSC)C(=O)N[C@@H](CO)C(=O)N[C@@H](CCCNC(=N)N)C(N)=O)[C@@H](C)CC)C(C)C)[C@@H](C)O)[C@@H](C)CC; UniProt P01286 32-60, looked up, fragment)
serum IGF-I, Day 2 (serum IGF-I [2]; [3]): 281 ng/mL | serum IGF-I, Day 3 (serum IGF-I [2]; [3]): 302 ng/mL | serum IGF-I, Day 4 (serum IGF-I [2]; [3]): 289 ng/mL | serum IGF-I, Day 5 (serum IGF-I [2]; [3]): 293 ng/mL | serum IGF-I, Day 1 (pretreatment) (serum IGF-I [2]; [3]): 278 ng/mL

(Aminohexanoyl)0 hGRF (1-29) NH2 (aminohexanoyl-YADAIFTNSYRKVLGQLSARKLLQDIMSR-NH2; UniProt P01286 32-60, looked up, fragment) [aminohexanoyl-hGRF(1-29)NH2]
D-IGF-I: increase in IGF-I levels from day 1 (pretreatment) to day 6 (serum IGF-I [1]): did not

[hexanoyl^30]hGRF(1-29)NH2 (YADAIFTNSYRKVLGQLSARKLLQDIMSR-NH2; also: hexanoyl at position 30; UniProt P01286 32-60, looked up, fragment) [[hexanoyl^30] hGRF(1-29)NH2, hexanoyl function anchored at the C-terminal region of hGRF(1-29)NH2]
serum IGF-I, Day 2 (serum IGF-I [2]; [4]): 270 ng/mL | serum IGF-I, Day 3 (serum IGF-I [2]; [4]): 287 ng/mL | serum IGF-I, Day 4 (serum IGF-I [2]; [4]): 278 ng/mL | serum IGF-I, Day 5 (serum IGF-I [2]; [4]): 276 ng/mL | serum IGF-I, Day 6 (serum IGF-I [2]; [4]): 327 ng/mL | serum IGF-I, Day 1 (pretreatment) (serum IGF-I [2]; [4]): 297 ng/mL

[hexanoyl^0]hGRF(1-44)NH2 (Hexanoyl-YADAIFTNSYRKVLGQLSARKLLQDIMSRQQGESNQERGARARL-NH2; UniProt P01286 32-75, looked up) [[hexanoyl^0] hGRF(1-44)NH2]
serum IGF-I, Day 2 (serum IGF-I [2]; [5]): 290 ng/mL | serum IGF-I, Day 3 (serum IGF-I [2]; [5]): 340 ng/mL | serum IGF-I, Day 4 (serum IGF-I [2]; [5]): 372 ng/mL | serum IGF-I, Day 5 (serum IGF-I [2]; [5]): 361 ng/mL | serum IGF-I, Day 6 (serum IGF-I [2]; [5]): 388 ng/mL | serum IGF-I, Day 1 (pretreatment) (serum IGF-I [2]; [5]): 241 ng/mL | increase in IGF-I levels (serum IGF-I [2]; Experiment 3, 30 μg/kg BID SC, day 3): 41% | increase in IGF-I levels (serum IGF-I [2]; Experiment 3, 30 μg/kg BID SC, day 4): 54% | increase in IGF-I levels (serum IGF-I [2]; Experiment 3, 30 μg/kg BID SC, day 5): 50% | increase in IGF-I levels (serum IGF-I [2]; Experiment 3, 30 μg/kg BID SC, day 6): 61%
